Measurements published in patent publication US20080009418A1, “Selective Inhibitors” (Alchemia LTD., priority 2004, published 2008).

Assays:
Mouse urotensin (mUR2) = target: T1, Mouse urotensin (mUR2) (Mus musculus, UniProt Q8VIH9); assay: Radioligand binding, mouse urotensin mUR2 membranes, FlashPlate, [125I]-Urotensin II; details: compound at 10 μM, [125I]-Urotensin II
T1 construct: purchased Perkin Elmer Biosignal
T1 sequence (Q8VIH9 1-385): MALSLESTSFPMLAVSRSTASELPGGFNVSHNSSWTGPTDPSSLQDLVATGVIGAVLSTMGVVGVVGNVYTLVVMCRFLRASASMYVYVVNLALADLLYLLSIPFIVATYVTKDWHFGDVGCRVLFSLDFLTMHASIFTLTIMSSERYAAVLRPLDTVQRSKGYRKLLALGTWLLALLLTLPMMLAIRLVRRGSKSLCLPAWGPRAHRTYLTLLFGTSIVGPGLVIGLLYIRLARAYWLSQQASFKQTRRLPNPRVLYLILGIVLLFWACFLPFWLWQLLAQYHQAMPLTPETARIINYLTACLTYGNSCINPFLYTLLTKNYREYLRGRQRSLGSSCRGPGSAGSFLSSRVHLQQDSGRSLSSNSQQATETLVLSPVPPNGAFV
Experimental: (§1) Cloned receptor membrane preparations from Perkin Elmer Biosignal™ were used in radioligand binding assays.
(§2) A1 Human δ-opioid (DOP), A2 Human κ-Opioid (KOP), A3 Human Melanocortin (MC3), A4 Human Melanocortin (MC4), A5 Human melanocortin (MC5), A6 Human melanin-concentrating hormone (MCH1), A7 Human μ-opioid (MOP), A8 Human neurokinin (NK1), A9 Human neuropeptide Y (NPY-Y1), A10 Human opioid (ORL1) A11 Mouse urotensin (mUR2)
(§3) Screening experiments were performed in either a 50 μl filtration or 25 μl FlashPlate assay format using the following protocol:
(§4) 19.5 μl buffer, 0.5 μl of compound diluted in DMSO, 5 μl of radioligand diluted in binding buffer.
(§5) The day prior to performing the experiment 50 μl DMSO was added to each well of the compound plates to yield compounds at a final concentration of 10 mM. Daughter plates were then created by diluting the compounds further in DMSO to a concentration of 0.5 mM. The mother plates were frozen immediately.
(§6) Immobilize membranes into FlashPlate microplates using PerkinElmer BioSignal's proprietary coating procedure. Dilute radioligand to 5× the final concentration in binding buffer. Add 19.5 μl buffer to each well of the FlashPlate. Add 0.5 μl of DMSO (total value, 5 wells), reference ligand (non-specific value, 3 wells) or compound to the corresponding wells in the FlashPlate microplate. Initiate the reaction by adding 5 μl of radioligand to each well. Apply TopSeal-A onto FlashPlate microplates. Incubate at room temperature for 1 hour in the dark. Count for 30 seconds per well on TopCount Microplate Scintillation and Luminescence Counter (PerkinElmer) using a count delay of 60 seconds.
(§7) Percentage inhibition was calculated using the following formula: [formula]

[1] = target: T2, Human neuropeptide Y (NPY-Y1) (Homo sapiens, UniProt P25929); assay: Radioligand binding, human neuropeptide Y NPY-Y1 membranes, FlashPlate, [125I]-PYY; details: compound at 10 μM, [125I]-PYY
T2 construct: purchased Perkin Elmer Biosignal
T2 sequence (P25929 1-384): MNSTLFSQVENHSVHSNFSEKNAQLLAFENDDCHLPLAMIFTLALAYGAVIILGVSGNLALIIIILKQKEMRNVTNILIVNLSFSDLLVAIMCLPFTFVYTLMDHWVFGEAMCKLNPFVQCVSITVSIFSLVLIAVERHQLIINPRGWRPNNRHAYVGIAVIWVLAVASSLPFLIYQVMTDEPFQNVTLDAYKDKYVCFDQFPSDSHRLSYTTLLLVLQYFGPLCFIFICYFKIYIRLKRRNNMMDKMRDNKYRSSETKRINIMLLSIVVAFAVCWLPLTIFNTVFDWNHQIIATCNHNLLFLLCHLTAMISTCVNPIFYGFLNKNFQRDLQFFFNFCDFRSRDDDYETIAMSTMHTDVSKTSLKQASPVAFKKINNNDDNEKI
Experimental: as §1, §2, §3, §4, §5, §6, §7

Human opioid (ORL1) = target: T3, Human opioid (ORL1) (Homo sapiens, UniProt P41146); assay: Radioligand binding, human opioid ORL1 membranes, FlashPlate, [125I]-Nociceptin; details: compound at 10 μM, [125I]-Nociceptin
T3 construct: purchased Perkin Elmer Biosignal
Experimental: as §1, §2, §3, §4, §5, §6, §7

Human Melanocortin (MC4) = target: T4, Human Melanocortin (MC4) (Homo sapiens, UniProt P32245); assay: Radioligand binding, human melanocortin MC4 membranes, FlashPlate, [125I]-NDP-αMSH; details: compound at 10 μM, [125I]-NDP-αMSH
T4 construct: purchased Perkin Elmer Biosignal
Experimental: as §1, §2, §3, §4, §5, §6, §7

Human melanocortin (MC5) = target: T5, Human melanocortin (MC5) (Homo sapiens, UniProt P33032); assay: Radioligand binding, human melanocortin MC5 membranes, FlashPlate, [125I]-NDP-αMSH; details: compound at 10 μM, [125I]-NDP-αMSH
T5 construct: purchased Perkin Elmer Biosignal
Experimental: as §1, §2, §3, §4, §5, §6, §7

Human Melanocortin (MC3) = target: T6, Human Melanocortin (MC3) (Homo sapiens, UniProt P41968); assay: Radioligand binding, human melanocortin MC3 membranes, FlashPlate, [125I]-NDP-αMSH; details: compound at 10 μM, [125I]-NDP-αMSH
T6 construct: purchased Perkin Elmer Biosignal
Experimental: as §1, §2, §3, §4, §5, §6, §7

[2] = target: T7, Human melanin-concentrating hormone (MCH1) (Homo sapiens, UniProt Q99705); assay: Radioligand binding, human melanin-concentrating hormone MCH1 membranes, FlashPlate, [125I]-S36057; details: compound at 10 μM; for A6 radioligand binding, percentage inhibition: [125I]-S36057
T7 construct: purchased Perkin Elmer Biosignal
Experimental: as §1, §2, §3, §4, §5, §6, §7

Human μ-opioid (MOP) = target: T8, Human μ-opioid (MOP) (Homo sapiens, UniProt P35372); assay: Radioligand binding, human μ-opioid (MOP) membranes, FlashPlate, [3H]-Naloxone; details: compound at 10 μM, [3H]-Naloxone
T8 construct: purchased Perkin Elmer Biosignal
Experimental: as §1, §2, §3, §4, §5, §6, §7

Human neurokinin (NK1) = target: T9, Human neurokinin (NK1) (Homo sapiens, UniProt P25103); assay: Radioligand binding, human neurokinin NK1 membranes, filtration, [125I]-Substance P; details: compound at 10 μM, [125I]-Substance P
T9 construct: purchased Perkin Elmer Biosignal
Experimental: as §1, §2, §3
(§8) 44 μl membranes diluted in buffer, 1 μl of compound diluted in DMSO, 5 μl of radioligand diluted in binding buffer.
as §5
(§9) Thaw membranes on ice then dilute membranes in binding buffer at a concentration of 1 Unit per well. Dilute radio-ligand to 10 times the final concentration in binding buffer. Add 44 μl of diluted membranes to each well of the deep-well plate. Add 1 μl of DMSO (total value, 5 wells), reference ligand (non-specific value, 3 wells) or compound to the corresponding wells in the deep-well plate. Initiate the reaction by adding 5 μl of radioligand to each well and vortex gently. Incubate at room temperature for 1 hour. During incubation, pre-incubate the Multiscreen Harvest plates in 0.3% PEI. Filter over pre-soaked Multiscreen Harvest plates using a Tomtec Harvester. Wash 9 times with 500 μl of cold 50 mM Tris-HCl pH 7.4 at 4° C. and air-dry for 30 minutes at room temperature under a fume hood. Apply a bottom seal to the Multiscreen Harvest plates. Add 25 μl of MicroScint-0 to each well. Apply TopSeal-A to the plate. Count for 30 seconds per well on TopCount Microplate Scintillation and Luminescence Counter (PerkinElmer) using a count delay of 60 seconds.
as §7

Human κ-Opioid (KOP) = target: T10, Human κ-Opioid (KOP) (Homo sapiens, UniProt P41145); assay: Radioligand binding, human κ-opioid (KOP) membranes, filtration, [3H]-Diprenorphine; details: compound at 10 μM, [3H]-Diprenorphine
T10 construct: purchased Perkin Elmer Biosignal
Experimental: as §1, §2, §3, §8, §5, §9, §7

Human δ-opioid (DOP) = target: T11, Human δ-opioid (DOP) (Homo sapiens, UniProt P41143); assay: Radioligand binding, human δ-opioid (DOP) membranes, FlashPlate, [3H]-Bremazocine; details: compound at 10 μM, [3H]-Bremazocine
T11 construct: purchased Perkin Elmer Biosignal
Experimental: as §1, §2, §3, §4, §5, §6, §7

T6 sequence (P41968 whole entry): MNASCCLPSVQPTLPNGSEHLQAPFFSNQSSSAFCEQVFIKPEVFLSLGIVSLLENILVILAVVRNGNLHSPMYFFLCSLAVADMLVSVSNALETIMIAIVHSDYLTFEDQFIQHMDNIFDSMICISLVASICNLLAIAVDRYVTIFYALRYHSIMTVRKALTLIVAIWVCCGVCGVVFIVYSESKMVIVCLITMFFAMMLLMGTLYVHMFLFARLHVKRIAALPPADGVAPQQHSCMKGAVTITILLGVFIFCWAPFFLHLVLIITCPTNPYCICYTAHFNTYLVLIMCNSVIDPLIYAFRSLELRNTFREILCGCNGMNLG
T11 sequence (P41143 whole entry): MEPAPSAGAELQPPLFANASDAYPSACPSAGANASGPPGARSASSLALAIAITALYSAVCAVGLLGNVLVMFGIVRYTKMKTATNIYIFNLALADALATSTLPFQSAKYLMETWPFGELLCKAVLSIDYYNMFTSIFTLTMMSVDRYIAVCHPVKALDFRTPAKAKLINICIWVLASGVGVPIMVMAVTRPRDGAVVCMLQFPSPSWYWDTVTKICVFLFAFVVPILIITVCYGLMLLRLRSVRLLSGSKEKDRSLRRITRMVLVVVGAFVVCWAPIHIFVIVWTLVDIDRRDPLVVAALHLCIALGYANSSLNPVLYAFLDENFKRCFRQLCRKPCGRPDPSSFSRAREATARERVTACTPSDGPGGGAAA
T8 sequence (P35372 whole entry): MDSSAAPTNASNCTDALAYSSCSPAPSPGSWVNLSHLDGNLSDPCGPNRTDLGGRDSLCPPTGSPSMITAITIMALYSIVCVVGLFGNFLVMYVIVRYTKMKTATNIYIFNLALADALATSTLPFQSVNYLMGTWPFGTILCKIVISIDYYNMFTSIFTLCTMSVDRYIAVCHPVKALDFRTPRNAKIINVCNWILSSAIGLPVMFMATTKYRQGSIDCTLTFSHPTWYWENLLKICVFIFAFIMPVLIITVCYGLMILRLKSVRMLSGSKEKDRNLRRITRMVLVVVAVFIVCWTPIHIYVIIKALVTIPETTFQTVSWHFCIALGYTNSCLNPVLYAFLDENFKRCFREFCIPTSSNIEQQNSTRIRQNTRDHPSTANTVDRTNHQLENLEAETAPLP
T10 sequence (P41145 whole entry): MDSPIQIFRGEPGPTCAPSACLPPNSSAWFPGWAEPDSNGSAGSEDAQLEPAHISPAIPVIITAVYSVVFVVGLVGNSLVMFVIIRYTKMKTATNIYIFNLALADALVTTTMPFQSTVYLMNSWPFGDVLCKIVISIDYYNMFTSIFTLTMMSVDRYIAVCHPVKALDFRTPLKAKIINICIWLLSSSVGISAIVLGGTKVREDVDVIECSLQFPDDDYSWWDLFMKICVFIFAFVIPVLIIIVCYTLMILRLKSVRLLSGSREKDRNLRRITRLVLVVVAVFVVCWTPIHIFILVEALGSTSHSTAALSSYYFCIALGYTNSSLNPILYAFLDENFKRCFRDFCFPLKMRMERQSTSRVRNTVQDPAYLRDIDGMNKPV
T4 sequence (P32245 whole entry): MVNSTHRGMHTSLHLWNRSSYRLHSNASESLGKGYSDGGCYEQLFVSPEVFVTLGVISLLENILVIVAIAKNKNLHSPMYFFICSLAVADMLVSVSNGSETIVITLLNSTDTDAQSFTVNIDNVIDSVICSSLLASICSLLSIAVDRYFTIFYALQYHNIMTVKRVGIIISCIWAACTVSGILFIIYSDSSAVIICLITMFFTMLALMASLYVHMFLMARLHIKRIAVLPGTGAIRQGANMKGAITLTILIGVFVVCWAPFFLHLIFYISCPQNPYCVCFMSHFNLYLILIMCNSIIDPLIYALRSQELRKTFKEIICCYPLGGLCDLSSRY
T9 sequence (P25103 whole entry): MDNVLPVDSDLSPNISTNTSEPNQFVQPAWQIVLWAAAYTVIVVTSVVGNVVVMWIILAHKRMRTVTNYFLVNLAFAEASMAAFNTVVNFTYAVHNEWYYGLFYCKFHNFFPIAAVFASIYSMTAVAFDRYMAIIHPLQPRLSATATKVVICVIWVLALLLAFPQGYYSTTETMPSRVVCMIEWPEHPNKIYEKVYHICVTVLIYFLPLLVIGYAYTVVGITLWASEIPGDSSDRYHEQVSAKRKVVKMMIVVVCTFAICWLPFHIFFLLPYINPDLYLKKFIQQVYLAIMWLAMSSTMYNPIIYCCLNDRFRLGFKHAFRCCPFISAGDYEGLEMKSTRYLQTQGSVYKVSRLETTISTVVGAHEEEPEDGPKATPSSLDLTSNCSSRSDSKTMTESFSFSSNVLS
T5 sequence (P33032 whole entry): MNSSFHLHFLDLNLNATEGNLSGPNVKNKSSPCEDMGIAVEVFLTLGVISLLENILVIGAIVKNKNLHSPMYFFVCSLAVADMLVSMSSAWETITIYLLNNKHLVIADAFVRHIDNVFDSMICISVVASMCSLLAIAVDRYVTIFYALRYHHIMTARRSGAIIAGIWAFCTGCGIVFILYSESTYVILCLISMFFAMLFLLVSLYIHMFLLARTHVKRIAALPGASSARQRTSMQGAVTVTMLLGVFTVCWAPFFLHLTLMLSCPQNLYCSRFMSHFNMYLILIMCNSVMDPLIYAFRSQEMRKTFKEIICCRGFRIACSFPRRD
T7 sequence (Q99705 whole entry): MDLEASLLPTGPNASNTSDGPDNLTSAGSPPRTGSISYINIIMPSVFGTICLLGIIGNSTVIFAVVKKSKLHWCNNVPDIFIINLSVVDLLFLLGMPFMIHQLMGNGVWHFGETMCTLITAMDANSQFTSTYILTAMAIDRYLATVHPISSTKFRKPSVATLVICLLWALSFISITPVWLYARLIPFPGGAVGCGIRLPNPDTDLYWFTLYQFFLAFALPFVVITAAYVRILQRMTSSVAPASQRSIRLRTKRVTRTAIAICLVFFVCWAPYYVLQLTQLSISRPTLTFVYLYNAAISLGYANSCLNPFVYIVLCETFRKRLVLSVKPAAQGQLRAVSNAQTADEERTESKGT
T3 sequence (P41146 whole entry): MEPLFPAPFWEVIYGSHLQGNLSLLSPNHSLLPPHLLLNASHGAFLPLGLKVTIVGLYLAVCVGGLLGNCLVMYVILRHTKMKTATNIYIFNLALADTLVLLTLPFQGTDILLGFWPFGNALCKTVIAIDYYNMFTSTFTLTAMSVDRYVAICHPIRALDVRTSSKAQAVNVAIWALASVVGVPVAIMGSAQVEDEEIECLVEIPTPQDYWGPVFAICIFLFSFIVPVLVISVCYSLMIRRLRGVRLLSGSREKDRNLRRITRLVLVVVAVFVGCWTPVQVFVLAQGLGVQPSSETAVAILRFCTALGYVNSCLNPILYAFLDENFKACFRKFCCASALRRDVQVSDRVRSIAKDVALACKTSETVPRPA

Compound: COCC1OC(OCc2ccc3ccccc3c2)C(NC(=O)CNC(=N)N)C(OCc2ccc3ccccc3c2)C1O (stereo not shown) [compound 247]
- A11: inhibition of radioligand binding (Mouse urotensin (mUR2); FlashPlate): − (“−” indicates less than 50% inhibition at 10 μM)
- A9: inhibition of radioligand binding ([1]; FlashPlate): − (“−” indicates less than 50% inhibition at 10 μM)
- A10: inhibition of radioligand binding (Human opioid (ORL1); FlashPlate): − (“−” indicates less than 50% inhibition at 10 μM)
- A4: inhibition of radioligand binding (Human Melanocortin (MC4); FlashPlate): + (“+” indicates greater than 50% inhibition at 10 μM)
- A5: inhibition of radioligand binding (Human melanocortin (MC5); FlashPlate): + (“+” indicates greater than 50% inhibition at 10 μM)
- A3: inhibition of radioligand binding (Human Melanocortin (MC3); FlashPlate): + (“+” indicates greater than 50% inhibition at 10 μM)
- A6: inhibition of radioligand binding ([2]; [125I]-S36057, FlashPlate): − (“−” indicates less than 50% inhibition at 10 μM)
- A7: inhibition of radioligand binding (Human μ-opioid (MOP); FlashPlate): − (“−” indicates less than 50% inhibition at 10 μM)
- A8: inhibition of radioligand binding (Human neurokinin (NK1); filtration): + (“+” indicates greater than 50% inhibition at 10 μM)
- A2: inhibition of radioligand binding (Human κ-Opioid (KOP); filtration): − (“−” indicates less than 50% inhibition at 10 μM)
- A1: inhibition of radioligand binding (Human δ-opioid (DOP); FlashPlate): − (“−” indicates less than 50% inhibition at 10 μM)

Compound: NCCC(=O)NC1C(OCc2ccc3ccccc3c2)OC(COCc2ccc3ccccc3c2)C(O)C1OCc1ccc2ccccc2c1 (stereo not shown) [compound 384]
- A11: inhibition of radioligand binding (Mouse urotensin (mUR2); mouse mUR2 membranes): − (“−” indicates less than 50% inhibition at 10 μM)
- A9: inhibition of radioligand binding ([1]; human NPY-Y1 membranes): − (“−” indicates less than 50% inhibition at 10 μM)
- A10: inhibition of radioligand binding (Human opioid (ORL1); human ORL1 membranes): − (“−” indicates less than 50% inhibition at 10 μM)
- A4: inhibition of radioligand binding (Human Melanocortin (MC4); human MC4 membranes): + (“+” indicates greater than 50% inhibition at 10 μM)
- A5: inhibition of radioligand binding (Human melanocortin (MC5); human MC5 membranes): + (“+” indicates greater than 50% inhibition at 10 μM)
- A3: inhibition of radioligand binding (Human Melanocortin (MC3); human MC3 membranes): + (“+” indicates greater than 50% inhibition at 10 μM)
- A6: inhibition of radioligand binding ([2]; [125I]-S36057, human MCH1 membranes): + (“+” indicates greater than 50% inhibition at 10 μM)
- A7: inhibition of radioligand binding (Human μ-opioid (MOP); human MOP membranes): − (“−” indicates less than 50% inhibition at 10 μM)
- A8: inhibition of radioligand binding (Human neurokinin (NK1); human NK1 membranes): + (“+” indicates greater than 50% inhibition at 10 μM)
- A2: inhibition of radioligand binding (Human κ-Opioid (KOP); human KOP membranes): − (“−” indicates less than 50% inhibition at 10 μM)
- A1: inhibition of radioligand binding (Human δ-opioid (DOP); human DOP membranes): − (“−” indicates less than 50% inhibition at 10 μM)

Compound: COC[C@H]1OC(OCc2ccc(-c3ccccc3)cc2)[C@H](NC(=O)CCCNC(=N)N)[C@@H](OCc2cccc(O)c2)[C@@H]1O (stereo partly shown) [compound 132]
- A11 radioligand binding, percentage inhibition (Mouse urotensin (mUR2)): − (“−” indicates less than 50% inhibition at 10 μM)
- A9 radioligand binding, percentage inhibition [1]: − (“−” indicates less than 50% inhibition at 10 μM)
- A10 radioligand binding, percentage inhibition (Human opioid (ORL1)): − (“−” indicates less than 50% inhibition at 10 μM)
- A4 radioligand binding, percentage inhibition (Human Melanocortin (MC4)): − (“−” indicates less than 50% inhibition at 10 μM)
- A5 radioligand binding, percentage inhibition (Human melanocortin (MC5)): − (“−” indicates less than 50% inhibition at 10 μM)
- A3 radioligand binding, percentage inhibition (Human Melanocortin (MC3)): − (“−” indicates less than 50% inhibition at 10 μM)
- A6 radioligand binding, percentage inhibition [2]: − (“−” indicates less than 50% inhibition at 10 μM)
- A7 radioligand binding, percentage inhibition (Human μ-opioid (MOP)): + (“+” indicates greater than 50% inhibition at 10 μM)
- A8 radioligand binding, percentage inhibition (Human neurokinin (NK1)): − (“−” indicates less than 50% inhibition at 10 μM)
- A2 radioligand binding, percentage inhibition (Human κ-Opioid (KOP)): + (“+” indicates greater than 50% inhibition at 10 μM)
- A1 radioligand binding, percentage inhibition (Human δ-opioid (DOP)): − (“−” indicates less than 50% inhibition at 10 μM)

Compound: COC[C@H]1OC(OCc2ccc(-c3ccccc3)cc2)[C@H](NC(=O)CCCN)[C@@H](OCc2cccc(O)c2)[C@@H]1O (stereo partly shown) [compound 131]
- A11 radioligand binding, percentage inhibition (Mouse urotensin (mUR2)): − (“−” indicates less than 50% inhibition at 10 μM)
- A9 radioligand binding, percentage inhibition [1]: − (“−” indicates less than 50% inhibition at 10 μM)
- A10 radioligand binding, percentage inhibition (Human opioid (ORL1)): − (“−” indicates less than 50% inhibition at 10 μM)
- A4 radioligand binding, percentage inhibition (Human Melanocortin (MC4)): − (“−” indicates less than 50% inhibition at 10 μM)
- A5 radioligand binding, percentage inhibition (Human melanocortin (MC5)): − (“−” indicates less than 50% inhibition at 10 μM)
- A3 radioligand binding, percentage inhibition (Human Melanocortin (MC3)): − (“−” indicates less than 50% inhibition at 10 μM)
- A6 radioligand binding, percentage inhibition [2]: + (“+” indicates greater than 50% inhibition at 10 μM)
- A8 radioligand binding, percentage inhibition (Human neurokinin (NK1)): − (“−” indicates less than 50% inhibition at 10 μM)
- A2 radioligand binding, percentage inhibition (Human κ-Opioid (KOP)): − (“−” indicates less than 50% inhibition at 10 μM)
- A1 radioligand binding, percentage inhibition (Human δ-opioid (DOP)): − (“−” indicates less than 50% inhibition at 10 μM)
